Data reported in patent US20230372433A1, “NANOPARTICLE FOR ANTI-CANCER PEPTIDES AND USES THEREOF” (KING'S COLLEGE LONDON, priority 2020, published 2023).

Key:
[1] = tested on: HMLER (human breast cancer bulk cell); assay: MTT cytotoxicity assay, HMLER; type: cell-based; details: 72 hr, MTT; read-out: IC50 HMLER
[2] = ANTS/DPX liposome leakage assay, 3POPC/1POPG vesicles; type: biochemical; details: 0.5 mM vesicles
Procedure: (§1) In brief, 0.5 mM POPC vesicles (grey) or POPC:POPG vesicles (ratio 3:1, black) were incubated with peptide concentrations of 0, 0.02, 0.04, 0.08, 0.16, 0.32, 0.64, 1.25, 2.5, 5, 10, and 20 μM in each A) hydrochloric acid-adjusted phosphate buffered saline (1X, pH 4.8) and B) phosphate buffered saline (1X, pH 7.4).
(§2) The lipids 1-palmitoyl-2-oleoyl-sn-glycero-3-phosphocholine (POPC), 1-palmitoyl-2-oleoyl-snglycero-3-phospho-(1′-rac-glycerol) (POPG) were purchased from Avanti Polar Lipids and dissolved in chloroform. Large unilamellar vesicles (LUVs) were produced by extrusion through 100 nm pore filter using an extruder and filters purchased from Avanti Polar Lipids.
(§3) 5 mM ANTS (8-aminonaphthalene-1,3,6-trisulfonic acid, disodium salt) and 12.5 mM DPX (p-xylene-bis-pyridinium bromide) were entrapped in 0.1 μm diameter extruded vesicles with lipids. Gel filtration chromatography using a Sephadex G-100 (GE Healthcare Life Sciences Inc) was used to remove external free ANTS/DPX from LUVs with entrapped contents. LUVs were diluted to 0.5 mM and used to measure the leakage activity by addition of aliquots of peptides. Leakage was measured after 3 h incubation. 10% Triton was used as the positive control to measure the maximum leakage of the vesicle. Fluorescence emission spectra were recorded using excitation and emission wavelength of 350 nm and 510 nm for ANTS/DPX using a BioTek Synergy H1 Hybrid Multi-Mode Reader.
(§4) Table 4 illustrates peptide concentration-induced 50 ANTS/DPX liposome leakage. 0.5 mM POPC and 3POPC/1POPG vesicles were fixed and incubated with titrated peptide concentration (0, 0.02, 0.04, 0.08, 0.16, 0.32, 0.64, 1.25, 2.5, 5, 10, and 20 μM) each in phosphate buffered saline (1X, pH 7.4) and hydrochloric acid-adjusted phosphate buffered saline (1X, pH 4.8). The values are shown as lipid per peptide. IN-terminus is free, C-terminus: —W—NH2.

[3] = tested on: HEK293T (human embryonic kidney cell); assay: MTT cytotoxicity assay, HEK293T; type: cell-based; details: 72 hr, MTT; read-out: IC50 HEK293T
[4] = Tryptophan fluorescent binding assay, POPC vesicles; details: 50 μM peptide, PBS pH 7.4
Procedure: (§5) In brief, 50 μM peptides were fixed and incubated with titrated POPC vesicles (black) or 3POPC/1POPG vesicles (grey) at concentrations of 0, 12.5, 25, 50, 100, 250, 500, 1000, 2500, and 5000 μM in phosphate buffered saline (1X, pH 7.4). The lipid concentration that causes 50% peptide binding was determined using a tryptophan fluorescent binding assay and the values are shown as lipid per peptide.
as §2
(§6) Peptides (50 μM) and POPC/POPG LUVs (600 μM) were prepared in 10 mM phosphate buffer (pH 7.0). The solutions were incubated and measured after 60 minutes. Excitation was fixed at 280 nm (slit 9 nm) and emission was collected from 300 to 450 nm (slit 9 nm). The spectra were recorded using a Synergy H1 Hybrid Multi-Mode Reader (FIG. 3A) and Cytation™ 5 Cell Imaging Multi-Mode Reader (FIG. 2) from BioTek and were averaged over 3 scans.
(§7) Table 3 illustrates the lipid concentration-induced 50% peptide binding onto a liposome. 50 μM peptide was fixed and incubated with titrated lipid (POPC vesicles or 3POPC/1POPG vesicles) at concentrations of 0, 12.5, 25, 50, 100, 250, 500, 1000, 2500, and 5000 μM in phosphate buffered saline (1X, pH 7.4). The lipid concentration that causes 50% peptide binding was determined using tryptophan fluorescent binding assay and the values are shown as lipid per peptide. IN-terminus is free, C-terminus: —W—NH2.

[5] = tested on: HMLER-shEcad (human breast cancer stem cell); assay: MTT cytotoxicity assay, HMLER-shEcad; type: cell-based; details: 72 hr, MTT; read-out: IC50 HMLER-shEcad
[6] = ANTS/DPX liposome leakage assay, POPC vesicles; type: biochemical; details: 0.5 mM vesicles
Procedure: as §1, §2, §3, §4

[7] = Tryptophan fluorescent binding assay, 3POPC/1POPG vesicles; details: 50 μM peptide, PBS pH 7.4
Procedure: as §5, §2, §6, §7

[8] = tested on: MCF-10A (human breast epithelial cell); assay: cells; details: read-out: IC50 MCF-10A; 72 hr, MTT
Text: HMLER (human mammary endothelial cancer cells), HMLER-shEcad (human mammary endothelial cancer stem cells), and MCF-10A (healthy human mammary endothelial) cells were maintained in Mammary Epithelial Cell Growth Medium (MEGM) with supplements and growth factors: bovine pituitary extract (BPE), hydrocortisone, human epidermal growth factor (hEGF), insulin, and gentamicin/amphotericin-B. HEK293T (human embryonic kidney cell), and U2OS (homo sapiens bone osteosarcoma) cells were maintained in Dulbecco's Modified Eagle's Medium (DMEM) with a final concentration of 10% fetal bovine serum. The cells were grown in T75 flask at 310 K in a humidified atmosphere containing 5% CO2.
The colourimetric MTT (3-(4,5-dimethylthiazol-2-yl)-2,5-diphenyltetrazolium bromide) assay was used to determine the toxicity of the anti-cancer peptides and conventional anti-cancer drugs. 5×10^3 cells were seeded in each well of a 96-well microplate. The cells were incubated overnight. Elevated concentrations of the compounds (0, 0.1, 0.2, 0.4, 0.8, 1.6, 3.1, 6.3, 12.5, 25, 50 and 100 μM) were added and incubated for 72 hr with a total volume 200 μL. The stock solutions of the compounds were prepared as 5 mM solutions in DMSO and diluted using media or in pure water. The final concentration of DMSO in each well was either 0.5% or 0% and this amount was present in the untreated control. After 72 hr, 20 μL of a 4 mg/mL solution of MTT in PBS was added to each well, and the plate was incubated for an additional 4 hr. The MEGM/MTT mixture was aspirated and 100 μL of DMSO was added to dissolve the resulting purple formazan crystals. The absorbance of the solutions in each well was read at 550 nm wavelength. Absorbance values were normalized to either DMSO-containing or non DMSO-containing control wells and plotted as concentration of test compound versus % cell viability. ICso values were interpolated from the resulting dose dependent curves.
The peptides were screened against several different human cell lines and their cytotoxicity were determined. Cell lines utilised include MCF-10A (human breast epithelial cell), HMLER (human breast cancer bulk cell), HMLER-shEcad (human breast cancer stem cell), HEK293T (human embryonic kidney cell), and U2OS (human bone osteosarcoma).

[9] = tested on: U2OS (human bone osteosarcoma); assay: MTT cytotoxicity assay, U2OS; type: cell-based; details: 72 hr

Q: With GLLELLHLLLHAAG [EHH] as the sequence, how does the IC50 [1] read?
A: The IC50 was 25.4 ± 2.76 µM.

Q: What about the “Peptide Concentration-induced 50% ANTS/DPX leakage at pH 4.8 (L/P) 3POPC/1POPG Vesicle” value [2] of the same sequence?
A: The value was 80 L/P.

Q: What about the “Peptide Concentration-induced 50% ANTS/DPX leakage at pH 7.4 (L/P) 3POPC/1POPG Vesicle” value [2] of the same sequence?
A: The value was 981 L/P.

Q: And the IC50 [3]?
A: Its IC50 is 5.9 ± 0.14 µM.

Q: And the “Lipid Concentration-induced 50% Peptide Binding (L/P) POPC Vesicle” value [4]?
A: The value was 0.94 L/P.

Q: And the IC50 [5]?
A: The IC50 was 16.1 ± 3.18 µM.

Q: And the “Peptide Concentration-induced 50% ANTS/DPX leakage at pH 4.8 (L/P) POPC Vesicle” value [6]?
A: The value was 386 L/P.

Q: What about the “Peptide Concentration-induced 50% ANTS/DPX leakage at pH 7.4 (L/P) POPC Vesicle” value [6] of the same sequence?
A: The value was 1043 L/P.

Q: And the “Lipid Concentration-induced 50% Peptide Binding (L/P) 3POPC/1POPG Vesicle” value [7]?
A: Its value is 0.69 L/P.

Q: Which IC50 [1] does the source give for GLLHLLELLLHAAG [HEH] here?
A: Its IC50 is 28.6 ± 10.8 µM.

Q: And the “Peptide Concentration-induced 50% ANTS/DPX leakage at pH 4.8 (L/P) 3POPC/1POPG Vesicle” value [2]?
A: Its value is 24 L/P.

Q: What about the “Peptide Concentration-induced 50% ANTS/DPX leakage at pH 7.4 (L/P) 3POPC/1POPG Vesicle” value [2] of the same sequence?
A: Its value is 505 L/P.

Q: What about the IC50 [3] of the same sequence?
A: Its IC50 is 8.8 ± 1.7 µM.

Q: And the “Lipid Concentration-induced 50% Peptide Binding (L/P) POPC Vesicle” value [4]?
A: Its value is 0.88 L/P.

Q: What about the IC50 [5] of the same sequence?
A: Its IC50 is 11 ± 1.06 µM.

Q: What about the “Peptide Concentration-induced 50% ANTS/DPX leakage at pH 4.8 (L/P) POPC Vesicle” value [6] of the same sequence?
A: Its value is 173 L/P.

Q: And the “Peptide Concentration-induced 50% ANTS/DPX leakage at pH 7.4 (L/P) POPC Vesicle” value [6]?
A: The value was 995 L/P.

Q: And the “Lipid Concentration-induced 50% Peptide Binding (L/P) 3POPC/1POPG Vesicle” value [7]?
A: Its value is 3.50 L/P.

Q: For GLLHLLELLLKAAG [HEK], which IC50 [1] is on record?
A: The IC50 was 2.35 ± 1.06 µM.

Q: And the “Peptide Concentration-induced 50% ANTS/DPX leakage at pH 4.8 (L/P) 3POPC/1POPG Vesicle” value [2]?
A: The value was 411 L/P.

Q: And the “Peptide Concentration-induced 50% ANTS/DPX leakage at pH 7.4 (L/P) 3POPC/1POPG Vesicle” value [2]?
A: Its value is 386 L/P.

Q: What about the IC50 [3] of the same sequence?
A: The IC50 was 6.95 ± 1.63 µM.

Q: And the IC50 [8]?
A: The IC50 was 29.8 ± 7.35 µM.

Q: What about the “Lipid Concentration-induced 50% Peptide Binding (L/P) POPC Vesicle” value [4] of the same sequence?
A: The value was 0.44 L/P.

Q: What about the IC50 [5] of the same sequence?
A: Its IC50 is 3.45 ± 2.19 µM.

Q: And the “Peptide Concentration-induced 50% ANTS/DPX leakage at pH 4.8 (L/P) POPC Vesicle” value [6]?
A: Its value is 97 L/P.

Q: And the “Peptide Concentration-induced 50% ANTS/DPX leakage at pH 7.4 (L/P) POPC Vesicle” value [6]?
A: The value was 755 L/P.

Q: What about the “Lipid Concentration-induced 50% Peptide Binding (L/P) 3POPC/1POPG Vesicle” value [7] of the same sequence?
A: The value was 0.46 L/P.

Q: Which IC50 [1] does the source give for GLLHLLHLLLEAAG [HHE] here?
A: Its IC50 is 16.7 ± 2.26 µM.

Q: And the “Peptide Concentration-induced 50% ANTS/DPX leakage at pH 4.8 (L/P) 3POPC/1POPG Vesicle” value [2]?
A: The value was 113 L/P.

Q: And the “Peptide Concentration-induced 50% ANTS/DPX leakage at pH 7.4 (L/P) 3POPC/1POPG Vesicle” value [2]?
A: Its value is 411 L/P.

Q: What about the IC50 [3] of the same sequence?
A: The IC50 was 18.4 ± 3.75 µM.

Q: And the “Lipid Concentration-induced 50% Peptide Binding (L/P) POPC Vesicle” value [4]?
A: The value was 1.00 L/P.

Q: What about the IC50 [5] of the same sequence?
A: Its IC50 is 10.8 ± 0.78 µM.

Q: And the “Peptide Concentration-induced 50% ANTS/DPX leakage at pH 4.8 (L/P) POPC Vesicle” value [6]?
A: Its value is 143 L/P.

Q: And the “Peptide Concentration-induced 50% ANTS/DPX leakage at pH 7.4 (L/P) POPC Vesicle” value [6]?
A: The value was 842 L/P.

Q: What about the IC50 [9] of the same sequence?
A: The IC50 was 53.2 ± 5.3 µM.

Q: And the “Lipid Concentration-induced 50% Peptide Binding (L/P) 3POPC/1POPG Vesicle” value [7]?
A: The value was 0.75 L/P.

Q: With GLLHLLHLLLHAAG [HHH] as the sequence, how does the IC50 [1] read?
A: Its IC50 is 21.1 ± 6.93 µM.

Q: And the “Peptide Concentration-induced 50% ANTS/DPX leakage at pH 4.8 (L/P) 3POPC/1POPG Vesicle” value [2]?
A: Its value is 50 L/P.

Q: And the “Peptide Concentration-induced 50% ANTS/DPX leakage at pH 7.4 (L/P) 3POPC/1POPG Vesicle” value [2]?
A: Its value is 469 L/P.

Q: What about the IC50 [3] of the same sequence?
A: Its IC50 is 30.6 ± 4.81 µM.

Q: And the IC50 [8]?
A: Its IC50 is 79 ± 11.3 µM.

Q: And the “Lipid Concentration-induced 50% Peptide Binding (L/P) POPC Vesicle” value [4]?
A: Its value is 0.46 L/P.

Q: What about the IC50 [5] of the same sequence?
A: Its IC50 is 9.5 ± 0.99 µM.

Q: What about the “Peptide Concentration-induced 50% ANTS/DPX leakage at pH 4.8 (L/P) POPC Vesicle” value [6] of the same sequence?
A: The value was 173 L/P.

Q: What about the “Peptide Concentration-induced 50% ANTS/DPX leakage at pH 7.4 (L/P) POPC Vesicle” value [6] of the same sequence?
A: Its value is 1133 L/P.

Q: What about the “Lipid Concentration-induced 50% Peptide Binding (L/P) 3POPC/1POPG Vesicle” value [7] of the same sequence?
A: The value was 0.82 L/P.
